Test results taken from the supplement of paper PMC10307832.

What was measured:
Assay in all cases: relative viability (nuclei count vs DMSO), 5 days (fraction); higher = more cells survive
Tipifarnib + Vorinostat = compound: Cn1cncc1[C@@](N)(c1ccc(Cl)cc1)c1ccc2c(c1)c(-c1cccc(Cl)c1)cc(=O)n2C [Tipifarnib] + O=C(CCCCCCC(=O)Nc1ccccc1)NO [Vorinostat] (partner 1 µM)
Method in brief: (§1)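 Lung cancer cell lines were pin-tool dosed in 1536-well plates on the day after seeding, with either a lone drug or a fixed anchor-drug dose plus five library-drug doses (not always all listed) in √10 steps. Nuclei were counted on 4× images after 5 days. Relative viability is the ratio of treated-well to vehicle-well nuclei counts, with each value a median of duplicate plates.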

Tipifarnib + Dasatinib = compound: Cn1cncc1[C@@](N)(c1ccc(Cl)cc1)c1ccc2c(c1)c(-c1cccc(Cl)c1)cc(=O)n2C [Tipifarnib] + Cc1nc(Nc2ncc(C(=O)Nc3c(C)cccc3Cl)s2)cc(N2CCN(CCO)CC2)n1 [Dasatinib] (partner 0.075 µM)
Method in brief: as §1

Tipifarnib + Pictilisib = compound: Cn1cncc1[C@@](N)(c1ccc(Cl)cc1)c1ccc2c(c1)c(-c1cccc(Cl)c1)cc(=O)n2C [Tipifarnib] + CS(=O)(=O)N1CCN(Cc2cc3nc(-c4cccc5[nH]ncc45)nc(N4CCOCC4)c3s2)CC1 [Pictilisib] (partner 1 µM)
Method in brief: as §1

Tipifarnib + Crizotinib = compound: Cn1cncc1[C@@](N)(c1ccc(Cl)cc1)c1ccc2c(c1)c(-c1cccc(Cl)c1)cc(=O)n2C [Tipifarnib] + C[C@@H](Oc1cc(-c2cnn(C3CCNCC3)c2)cnc1N)c1c(Cl)ccc(F)c1Cl [Crizotinib] (partner 1 µM)
Method in brief: as §1

| Cell Line | relative viability (Tipifarnib + Vorinostat; first compound 0.01 µM) | relative viability (Tipifarnib + Vorinostat; first compound 0.03162 µM) | relative viability (Tipifarnib + Vorinostat; first compound 0.1 µM) | relative viability (Tipifarnib + Vorinostat; first compound 0.3162 µM) | relative viability (Tipifarnib + Vorinostat; first compound 1 µM) | relative viability (Tipifarnib + Dasatinib; first compound 0.01 µM) | relative viability (Tipifarnib + Dasatinib; first compound 0.03162 µM) | relative viability (Tipifarnib + Dasatinib; first compound 0.1 µM) | relative viability (Tipifarnib + Dasatinib; first compound 0.3162 µM) | relative viability (Tipifarnib + Dasatinib; first compound 1 µM) | relative viability (Tipifarnib + Pictilisib; first compound 0.01 µM) | relative viability (Tipifarnib + Pictilisib; first compound 0.03162 µM) | relative viability (Tipifarnib + Pictilisib; first compound 0.1 µM) | relative viability (Tipifarnib + Pictilisib; first compound 0.3162 µM) | relative viability (Tipifarnib + Pictilisib; first compound 1 µM) | relative viability (Tipifarnib + Crizotinib; first compound 0.01 µM) | relative viability (Tipifarnib + Crizotinib; first compound 0.03162 µM) | relative viability (Tipifarnib + Crizotinib; first compound 0.1 µM) | relative viability (Tipifarnib + Crizotinib; first compound 0.3162 µM) | relative viability (Tipifarnib + Crizotinib; first compound 1 µM) |
| --- | --- | --- | --- | --- | --- | --- | --- | --- | --- | --- | --- | --- | --- | --- | --- | --- | --- | --- | --- | --- |
| NCI-H647 | 0.321 | 0.326 | 0.352 | 0.157 | 0.13 | 0.205 | 0.159 | 0.167 | 0.127 | 0.0682 | 0.403 | 0.416 | 0.364 | 0.406 | 0.167 | 0.76 | 0.618 | 0.515 | 0.367 | 0.521 |
| NCI-H650 | 0.366 | 0.325 | 0.346 | 0.249 | 0.189 | 0.421 | 0.375 | 0.366 | 0.284 | 0.266 | 1.14 | 0.746 | 0.647 | 0.557 | 0.351 | 0.773 | 0.679 | 0.442 | 0.437 | 0.345 |
| NCI-H661 | 0.822 | 0.657 | 0.684 | 0.558 | 0.569 | 1.11 | 0.949 | 0.914 | 0.601 | 0.619 | 0.441 | 0.535 | 0.419 | 0.474 | 0.326 | 1.02 | 0.935 | 0.785 | 0.837 | 0.786 |
| NCI-H727 | 1.15 | 1.22 | 1.18 | 1.32 | 0.91 | 0.443 | 0.422 | 0.421 | 0.503 | 0.62 | 0.625 | 0.438 | 0.484 | 0.389 | 0.444 | 0.958 | 0.838 | 0.746 | 0.695 | 0.675 |
| NCI-H838 | 0.665 | 0.646 | 0.606 | 0.568 | 0.588 | 0.322 | 0.296 | 0.233 | 0.263 | 0.237 | 0.404 | 0.368 | 0.324 | 0.3 | 0.279 | 0.694 | 0.538 | 0.434 | 0.434 | 0.433 |
| NCI-H1355 | 0.625 | 0.544 | 0.409 | 0.466 | 0.301 | 0.684 | 0.687 | 0.524 | 0.496 | 0.443 | 0.439 | 0.401 | 0.356 | 0.301 | 0.293 | 1.19 | 1.05 | 0.764 | 0.64 | 0.673 |
| NCI-H1437 | 0.837 | 0.796 | 0.747 | 0.646 | 0.601 | 0.446 | 0.482 | 0.452 | 0.416 | 0.214 | 0.457 | 0.466 | 0.45 | 0.343 | 0.212 | 0.978 | 0.959 | 1 | 0.763 | 0.894 |
| NCI-H1650 | 0.415 | 0.399 | 0.306 | 0.253 | 0.212 | 0.274 | 0.254 | 0.24 | 0.22 | 0.202 | 0.409 | 0.228 | 0.337 | 0.265 | 0.191 | 0.47 | 0.454 | 0.401 | 0.324 | 0.337 |
